Article PMC8308845, “Discovery of Novel Chemical Series of OXA-48 β-Lactamase Inhibitors by High-Throughput Screening” (Pharmaceuticals, 2021)
Values after ≈ are worked out from the molar mass of the structure shown.

Tests used:
HepG2 cells = experiment: Cytotoxicity assay (cell viability, alamarBlue); type: cell-based; settings: 48 h incubation, dose response
Description: (§1) Based on the promising BLI profile of compound ID2, a preliminary in vitro ADMET assessment in terms of kinetic solubility and cytotoxicity was carried out. […] Also, it was tested for cell viability in dose response against HepG2 cells, following 48 h incubation time.
Compound ID2 was tested in cell viability assays with HepG2 cells. The viability of cultured cells was evaluated using alamarBlue staining as described by Nociari et al.. Concentration–response curves were prepared for each compound by testing eight concentrations in triplicate with three-fold dilutions starting from 100 µM to […]. After incubation for 48 h at 37 °C, the percentage of control activity was calculated by comparing the fluorescence reading in the presence of the test compound to that in the absence of a test compound (control). IC50 values were determined by non-linear regression analysis of the concentration–response curves. These parameters were obtained by Hill equation curve fitting. Chlorpromazine was used as a reference compound.

E. coli ATCC25922 = experiment: MIC by broth microdilution, antibiotic-sensitive strain; type: cell-based; settings: Escherichia coli, no β-lactam, BLI tested at 32 µg/mL, read-out: MIC, BLI alone
From the text: To evaluate the capability of restoring β-lactam susceptibility, the two most promising representatives of SC_2 (ID3) and SC_7 (ID2) were screened alone and in combination with ampicillin (AMP) and IMP against sensitive and resistant Gram-negative bacteria. Avibactam and tazobactam were also included in the MIC characterization as BLI reference compounds. Specifically, we used E. coli ATCC25922 as antibiotic-sensitive strain, while E. coli ATCC BAA-2523 and K. pneumoniae ATCC BAA-2524 as β-lactam-resistant bacteria, producing OXA-48 carbapenemase.
Test compounds and tazobactam were tested at 32 µg/mL, while avibactam was applied at 4 µg/mL. […] Both antibiotics were selected for the combination study as they can be hydrolyzed by the target OXA-48 enzyme.
MIC values were determined by the broth dilution method and interpreted using published guidelines described by Clinical and Laboratory Standards Institute (CLSI).
All BLIs were dissolved in 100% DMSO and they were tested at a fixed concentration of 32 µg/mL and 1% of DMSO final concentration. Avibactam was used as reference β-lactamase inhibitor. All antimicrobials were prepared in line with CLSI susceptibility testing standards. AMP (USP # 1033000; batch no. K1M493) was dissolved at 5.12 mg/mL, IMP (USP # 1337809; batch no. R038R0) and avibactam (Biochem # NXL 104; batch no. 20180726) were dissolved at 1.28 mg/mL in the respective solvents recommended by CLSI (2). Solutions at 4X the final concentrations of the test range were made in Cation adjusted Mueller-Hinton broth (CA-MHB, BD # 212322; batch no. 6117994; Expiry date: 29.02.2020) by serial dilutions, and then diluted 2-fold with CA-MHB (for antimicrobials alone), or with the BLIs/avibactam (for combinations of new/reference inhibitors and antimicrobials). Moreover, all BLIs were tested alone at a fixed concentration of 32 μg/mL. The final concentration of DMSO in the test tubes was 1% for each different combination.
50 μL of each well were then transferred from the masterblock into 96-well plates to whom were then added 50 μL of the final inoculum. MIC tests were performed by broth microdilution in line with CLSI susceptibility testing standards. Bacterial inocula were prepared at ca. 1 × 10^6 CFU/mL by diluting 100-fold a 0.5 McFarland suspension in CA-MHB with TES (TREK Diagnostic Systems, Product code: T3462; Batch: 356347; Expiry date: 12-Jun-2019). 50 μL of antibacterial solutions at 2 × the final concentrations were diluted 2-fold with 50 μL of inoculum to give a final inoculum of ca. 5 × 10^5 CFU/mL and desired test concentrations of antibacterial agents. Test plates were incubated according to CLSI guidelines and read visually. MIC values corresponded to the first well with no visible growth.

[1] = Aqueous solubility assay (PBS, pH 7.4); type: physicochemical; settings: isotonic buffer pH 7.4, aqueous buffer, kinetic from dmso stock, buffered aqueous solution at pH 7.4, 200 μM nominal, 2% DMSO, room temperature
Description: as §1
Compound was dissolved in DMSO as stock solution and then added to isotonic buffer (pH 7.4) at a concentration of 200 μM (2% DMSO final concentration). After a 24 h incubation under shaking at room temperature, dissolved compound is measured by a chromatographic procedure with photodiode array detection. Metoprolol tartrate, rifampicin, ketoconazole, phenytoin, haloperidol, simvastatin, diethylstilbestrol, and tamoxifen were used as reference compounds for different solubility degrees.

## CCc1ccc(-c2n[nH]c3nc(-c4ccc(C(=O)O)cc4)cc(C(=O)O)c23)cc1 [ID2]
HepG2 cells
  cytotoxicity (no sign of toxicity up to the highest tested concentration): > 100 µM
E. coli ATCC25922
  MIC: > 32 µg/mL
[1]
  solubility kinetic at 24 h: 179 µM (≈ 69.5 µg/mL)
